According to article PMC4141193 (FEBS Open Bio, 2014):

How the values were obtained:
[1] = target: X-linked inhibitor of apoptosis protein (XIAP) (Homo sapiens, UniProt P98170); assay: competitive fluorescence polarization with ARPF-FAM probe; assay type: binding
[2] = target: ARPF-K(5-Fam)-NH2-peptide; assay: fluorescence polarisation

Chain of X-linked inhibitor of apoptosis protein (XIAP) (P98170 238-359): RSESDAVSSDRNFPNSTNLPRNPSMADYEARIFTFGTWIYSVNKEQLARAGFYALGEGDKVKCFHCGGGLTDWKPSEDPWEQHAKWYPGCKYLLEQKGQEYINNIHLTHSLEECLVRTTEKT

Ki [1] | Kd [2] | Compound
22.3 µM |  | CCCCCCCCCCCC1=C(O)C(=O)C=C(O)C1=O [embelin]
 | 0.145 µM | recombinant XIAP-BIR3 domain protein (domain or fragment)
